In the OligoGym collection one finds 3 h FOB score data, which are given here for 25 substances.

HELM strings list units from the 5' end as sugar, base in round brackets, then linkage (d deoxyribose, r ribose, m 2'-O-methyl, p phosphodiester). Strings are as the collection lists them; they lack the last nucleoside at the 3' end of the tested compound. [moe] = 2'-O-(2-methoxyethyl) (MOE); [sp] = phosphorothioate linkage; [m5C] = 5-methylcytosine

The target in the series is ATXN3. Kind of series: mouse, dose not given. To be noted: ASO.
In the case of “RNA1{[moe](G)[sp].[moe]([m5C])p.[moe]([m5C])p.[moe](A)p.[moe](A)p.d(T)[sp].d(A)[sp].d(T)[sp].d(T)[sp].d(T)[sp].d(A)[sp].d(T)[sp].d(A)[sp].d(G)[sp].d(G)[sp].[moe](T)p.[moe](G)p.[moe]([m5C])[sp].[moe](T)}$$$$ (last 3' nucleoside missing)”, the 3 h FOB score was 1.5 score 0-7.

“RNA1{[moe](G)[sp].[moe]([m5C])p.[moe]([m5C])p.[moe](A)p.[moe](T)p.[moe](T)p.d(A)[sp].d(A)[sp].d(T)[sp].d([m5C])[sp].d(T)[sp].d(A)[sp].d(T)[sp].d(A)[sp].d([m5C])[sp].d(T)[sp].[moe](G)p.[moe](A)[sp].[moe](A)}$$$$ (last 3' nucleoside missing)” gave a 3 h FOB score of 0 score 0-7. With “RNA1{[moe](G)[sp].[moe]([m5C])p.[moe]([m5C])p.[moe](A)p.[moe](T)p.d(T)[sp].d(A)[sp].d(A)[sp].d(T)[sp].d([m5C])[sp].d(T)[sp].d(A)[sp].d(T)[sp].d(A)[sp].d([m5C])[sp].[moe](T)p.[moe](G)p.[moe](A)[sp].[moe](A)}$$$$ (last 3' nucleoside missing)”, the 3 h FOB score was 1 score 0-7. For “RNA1{[moe](T)[sp].[moe](A)[sp].[moe](A)p.[moe](T)p.[moe](A)[sp].d([m5C])[sp].d(T)[sp].d(T)[sp].d(T)[sp].d(T)[sp].d(T)[sp].d([m5C])[sp].d([m5C])[sp].d(A)[sp].d(G)[sp].[moe]([m5C])p.[moe]([m5C])p.[moe](T)[sp].[moe](T)}$$$$ (last 3' nucleoside missing)”, the 3 h FOB score is 1.5 score 0-7. As for “RNA1{[moe](T)[sp].[moe](A)p.[moe](A)p.[moe](T)p.[moe](A)[sp].d([m5C])[sp].d(T)[sp].d(T)[sp].d(U)[sp].d(T)[sp].d(T)[sp].d([m5C])[sp].d([m5C])[sp].d(A)[sp].d(G)[sp].[moe]([m5C])p.[moe]([m5C])p.[moe](T)[sp].[moe](T)}$$$$ (last 3' nucleoside missing)”, the figure is 1 score 0-7; as for “RNA1{[moe](T)[sp].[moe](A)p.[moe](A)p.[moe](T)p.[moe](A)[sp].d([m5C])[sp].d(U)[sp].d(T)[sp].d(T)[sp].d(T)[sp].d(T)[sp].d([m5C])[sp].d([m5C])[sp].d(A)[sp].d(G)[sp].[moe]([m5C])p.[moe]([m5C])p.[moe](T)[sp].[moe](T)}$$$$ (last 3' nucleoside missing)”, 1 score 0-7.

“RNA1{[moe](T)[sp].[moe](A)p.[moe](A)p.[moe](T)p.[moe](A)p.[moe]([m5C])p.d(T)[sp].d(T)[sp].d(T)[sp].d(T)[sp].d(T)[sp].d([m5C])[sp].d([m5C])[sp].d(A)[sp].d(G)[sp].d([m5C])[sp].[moe]([m5C])p.[moe](T)[sp].[moe](T)}$$$$ (last 3' nucleoside missing)”: the 3 h FOB score stood at 3 score 0-7. Then “RNA1{[moe](T)[sp].[moe](A)p.[moe](A)p.[moe](T)p.[moe](T)[sp].d([m5C])[sp].d(T)[sp].d(T)[sp].d(G)[sp].d([m5C])[sp].d(T)[sp].d(T)[sp].d([m5C])[sp].d(A)[sp].d(A)[sp].[moe]([m5C])p.[moe]([m5C])p.[moe](A)[sp].[moe](T)}$$$$ (last 3' nucleoside missing)”, with 1.38 score 0-7; and “RNA1{[moe](T)[sp].[moe](G)[sp].[moe](G)p.[moe]([m5C])p.[moe](A)[sp].d([m5C])[sp].d(A)[sp].d(T)[sp].d(T)[sp].d(T)[sp].d(T)[sp].d(T)[sp].d(T)[sp].d(A)[sp].d(T)[sp].[moe](A)p.[moe](G)p.[moe](A)[sp].[moe](G)}$$$$ (last 3' nucleoside missing)”, with 3.25 score 0-7. In the case of “RNA1{[moe](T)[sp].[moe](G)[sp].[moe](T)p.[moe](T)p.[moe](A)[sp].d(A)[sp].d(T)[sp].d(A)[sp].d([m5C])[sp].d(T)[sp].d(T)[sp].d(T)[sp].d(T)[sp].d(T)[sp].d([m5C])[sp].[moe]([m5C])p.[moe](A)p.[moe](G)[sp].[moe]([m5C])}$$$$ (last 3' nucleoside missing)”, the 3 h FOB score is 1 score 0-7. As for “RNA1{[moe](T)[sp].[moe](G)[sp].[moe]([m5C])p.[moe](T)p.[moe]([m5C])[sp].d(A)[sp].d(T)[sp].d(T)[sp].d(T)[sp].d(A)[sp].d(T)[sp].d(T)[sp].d([m5C])[sp].d(T)[sp].d([m5C])[sp].[moe](A)p.[moe](A)p.[moe](G)[sp].[moe](T)}$$$$ (last 3' nucleoside missing)”, the figure is 1 score 0-7. Then “RNA1{[moe](T)[sp].[moe](G)p.[moe](A)[sp].[moe](G)[sp].[moe]([m5C])[sp].d([m5C])[sp].d(A)[sp].d(A)[sp].d(T)[sp].d(A)[sp].d(T)[sp].d(T)[sp].d(T)[sp].d(A)[sp].d(T)[sp].[moe](A)[sp].[moe](G)p.[moe](G)[sp].[moe](T)}$$$$ (last 3' nucleoside missing)”, with 4 score 0-7; and “RNA1{[moe](T)[sp].[moe](G)p.[moe](G)[sp].[moe]([m5C])[sp].[moe](A)[sp].d([m5C])[sp].d(A)[sp].d(T)[sp].d(T)[sp].d(T)[sp].d(T)[sp].d(T)[sp].d(T)[sp].d(A)[sp].d(T)[sp].[moe](A)[sp].[moe](G)p.[moe](A)[sp].[moe](G)}$$$$ (last 3' nucleoside missing)”, with 6 score 0-7. “RNA1{[moe](T)[sp].[moe](G)p.[moe](G)p.[moe](A)p.[moe](A)[sp].d([m5C])[sp].d(T)[sp].d(A)[sp].d([m5C])[sp].d([m5C])[sp].d(T)[sp].d(T)[sp].d(G)[sp].d([m5C])[sp].d(A)[sp].[moe](T)p.[moe](A)p.[moe]([m5C])[sp].[moe](T)}$$$$ (last 3' nucleoside missing)” came in with a 3 h FOB score of 5.38 score 0-7. Then “RNA1{[moe](T)[sp].[moe](G)p.[moe](G)p.[moe](T)p.[moe](T)[sp].d(T)[sp].d(T)[sp].d([m5C])[sp].d(T)[sp].d([m5C])[sp].d(A)[sp].d(T)[sp].d(T)[sp].d(T)[sp].d(T)[sp].[moe](T)p.[moe](A)p.[moe](T)[sp].[moe](A)}$$$$ (last 3' nucleoside missing)”, with 0 score 0-7. Then “RNA1{[moe](T)[sp].[moe](G)p.[moe](G)p.[moe]([m5C])p.[moe](A)p.[moe]([m5C])p.d(A)[sp].d(T)[sp].d(T)[sp].d(T)[sp].d(T)[sp].d(T)[sp].d(T)[sp].d(A)[sp].d(T)[sp].d(A)[sp].[moe](G)p.[moe](A)[sp].[moe](G)}$$$$ (last 3' nucleoside missing)”, with 2.75 score 0-7; and “RNA1{[moe](T)[sp].[moe](G)p.[moe](G)p.[moe]([m5C])p.[moe](A)p.d([m5C])[sp].d(A)[sp].d(T)[sp].d(T)[sp].d(T)[sp].d(T)[sp].d(T)[sp].d(T)[sp].d(A)[sp].d(T)[sp].[moe](A)p.[moe](G)p.[moe](A)[sp].[moe](G)}$$$$ (last 3' nucleoside missing)”, with 2.5 score 0-7.

As to “RNA1{[moe](T)[sp].[moe](G)p.[moe](T)p.[moe](A)p.[moe]([m5C])[sp].d(A)[sp].d([m5C])[sp].d(T)[sp].d(T)[sp].d(T)[sp].d(T)[sp].d(A)[sp].d([m5C])[sp].d(A)[sp].d(T)[sp].[moe](T)p.[moe]([m5C])p.[moe]([m5C])[sp].[moe]([m5C])}$$$$ (last 3' nucleoside missing)”, the 3 h FOB score worked out at 1 score 0-7.

For the substance “RNA1{[moe](T)[sp].[moe](G)p.[moe](T)p.[moe](T)p.[moe](A)[sp].d(A)[sp].d(T)[sp].d(A)[sp].d([m5C])[sp].d(T)[sp].d(T)[sp].d(T)[sp].d(T)[sp].d(T)[sp].d([m5C])[sp].[moe]([m5C])p.[moe](A)p.[moe](G)[sp].[moe]([m5C])}$$$$ (last 3' nucleoside missing)”, the 3 h FOB score was 0 score 0-7.

On to “RNA1{[moe](T)[sp].[moe](G)p.[moe](T)p.[moe](T)p.[moe](A)p.d(A)[sp].d(T)[sp].d(A)[sp].d([m5C])[sp].d(T)[sp].d(T)[sp].d(T)[sp].d(T)[sp].d(T)[sp].d([m5C])[sp].[moe]([m5C])p.[moe](A)p.[moe](G)[sp].[moe]([m5C])}$$$$ (last 3' nucleoside missing)”, for which the 3 h FOB score was 1 score 0-7.

In turn, “RNA1{[moe](T)[sp].[moe](G)p.[moe](T)p.[moe](T)p.[moe]([m5C])[sp].d(A)[sp].d(T)[sp].d(A)[sp].d(T)[sp].d([m5C])[sp].d([m5C])[sp].d(T)[sp].d(T)[sp].d(T)[sp].d(A)[sp].[moe](A)p.[moe]([m5C])p.[moe]([m5C])[sp].[moe]([m5C])}$$$$ (last 3' nucleoside missing)” returned a 3 h FOB score of 0 score 0-7. Then “RNA1{[moe](T)[sp].[moe](G)p.[moe]([m5C])p.[moe](A)p.[moe]([m5C])[sp].d(A)[sp].d([m5C])[sp].d(T)[sp].d(T)[sp].d(T)[sp].d([m5C])[sp].d([m5C])[sp].d(T)[sp].d([m5C])[sp].d([m5C])[sp].[moe](T)p.[moe]([m5C])p.[moe](A)[sp].[moe](A)}$$$$ (last 3' nucleoside missing)”, with 0.5 score 0-7. Then “RNA1{[moe](T)[sp].[moe](G)p.[moe]([m5C])p.[moe](T)p.[moe](T)[sp].d(T)[sp].d(T)[sp].d([m5C])[sp].d(A)[sp].d(T)[sp].d(A)[sp].d([m5C])[sp].d([m5C])[sp].d(A)[sp].d(G)[sp].[moe](G)p.[moe](T)p.[moe]([m5C])[sp].[moe](T)}$$$$ (last 3' nucleoside missing)”, with 0.25 score 0-7. As for “RNA1{[moe](T)[sp].[moe](G)p.[moe]([m5C])p.[moe](T)p.[moe](T)p.d(T)[sp].d(T)[sp].d([m5C])[sp].d(A)[sp].d(T)[sp].d(A)[sp].d([m5C])[sp].d([m5C])[sp].d(A)[sp].d(G)[sp].[moe](G)p.[moe](T)p.[moe]([m5C])[sp].[moe](T)}$$$$ (last 3' nucleoside missing)”, the figure is 1.25 score 0-7; as for “RNA1{[moe](T)[sp].[moe](G)p.[moe]([m5C])p.[moe](T)p.[moe]([m5C])[sp].d(A)[sp].d(T)[sp].d(T)[sp].d(T)[sp].d(A)[sp].d(T)[sp].d(T)[sp].d([m5C])[sp].d(T)[sp].d([m5C])[sp].[moe](A)p.[moe](A)p.[moe](G)[sp].[moe](T)}$$$$ (last 3' nucleoside missing)”, 0 score 0-7.
